Experimental data taken from ChEMBL document CHEMBL5038592, “Discovery of MK-8153, a Potent and Selective ROMK Inhibitor and Novel Diuretic/Natriuretic” (J Med Chem, 2021).

How the values were obtained:
[1] = biological target: T1, ATP-sensitive inward rectifier potassium channel 1 (Homo sapiens, UniProt P48048); test: Inhibition of human ROMK expressed in CHO cells by whole cell voltage clamp electrophysiology assay; assay type: cell-based
T1 sequence (P48048 whole entry): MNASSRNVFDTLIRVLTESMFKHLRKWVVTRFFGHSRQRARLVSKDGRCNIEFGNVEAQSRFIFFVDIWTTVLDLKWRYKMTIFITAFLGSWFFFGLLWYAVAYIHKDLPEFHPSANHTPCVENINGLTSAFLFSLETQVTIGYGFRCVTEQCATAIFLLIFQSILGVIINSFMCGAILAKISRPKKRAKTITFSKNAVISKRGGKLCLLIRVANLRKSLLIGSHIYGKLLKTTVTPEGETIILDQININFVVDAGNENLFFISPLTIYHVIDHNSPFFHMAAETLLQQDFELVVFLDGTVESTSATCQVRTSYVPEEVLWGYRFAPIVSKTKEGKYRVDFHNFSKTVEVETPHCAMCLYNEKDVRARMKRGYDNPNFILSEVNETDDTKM

[2] = biological target: Voltage-gated inwardly rectifying potassium channel KCNH2 (Homo sapiens, UniProt Q12809); test: Inhibition of human ERG expressed in HEK-293 cells by voltage clamp electrophysiology assay
Sequence of Voltage-gated inwardly rectifying potassium channel KCNH2 (Q12809 whole entry): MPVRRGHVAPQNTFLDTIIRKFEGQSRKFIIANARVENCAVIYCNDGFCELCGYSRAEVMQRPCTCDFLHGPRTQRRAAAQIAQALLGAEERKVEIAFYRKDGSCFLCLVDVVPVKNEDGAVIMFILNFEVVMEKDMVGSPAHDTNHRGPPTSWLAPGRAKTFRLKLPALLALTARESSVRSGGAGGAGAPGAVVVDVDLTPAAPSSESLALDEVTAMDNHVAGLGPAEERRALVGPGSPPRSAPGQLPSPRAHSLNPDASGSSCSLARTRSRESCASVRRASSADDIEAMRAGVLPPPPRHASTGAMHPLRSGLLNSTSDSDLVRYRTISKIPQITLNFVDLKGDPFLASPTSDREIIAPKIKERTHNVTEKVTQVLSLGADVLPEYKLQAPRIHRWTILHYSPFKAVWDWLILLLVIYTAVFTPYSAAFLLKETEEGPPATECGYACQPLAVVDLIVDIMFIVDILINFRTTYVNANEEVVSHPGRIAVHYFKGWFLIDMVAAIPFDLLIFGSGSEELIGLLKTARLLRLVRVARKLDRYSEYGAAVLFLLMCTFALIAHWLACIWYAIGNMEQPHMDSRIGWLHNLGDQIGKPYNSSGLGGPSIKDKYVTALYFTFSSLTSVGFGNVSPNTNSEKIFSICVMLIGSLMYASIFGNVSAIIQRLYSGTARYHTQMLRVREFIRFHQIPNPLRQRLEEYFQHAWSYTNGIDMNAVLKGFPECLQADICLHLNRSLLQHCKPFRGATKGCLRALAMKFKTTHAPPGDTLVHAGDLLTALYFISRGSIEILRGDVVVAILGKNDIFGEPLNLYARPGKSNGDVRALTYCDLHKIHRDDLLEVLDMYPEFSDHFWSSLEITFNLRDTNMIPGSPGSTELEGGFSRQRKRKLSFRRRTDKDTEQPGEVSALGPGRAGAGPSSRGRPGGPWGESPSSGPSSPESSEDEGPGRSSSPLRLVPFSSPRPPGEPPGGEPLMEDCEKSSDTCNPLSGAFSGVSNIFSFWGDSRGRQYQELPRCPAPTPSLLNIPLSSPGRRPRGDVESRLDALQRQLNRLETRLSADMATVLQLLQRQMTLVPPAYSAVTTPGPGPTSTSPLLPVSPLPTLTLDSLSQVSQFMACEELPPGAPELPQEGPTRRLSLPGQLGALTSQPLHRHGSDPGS

[3] = Apparent permeability in pig LLC-PK1 cells
[4] = species: Homo sapiens; test: Selectivity index, ratio of IC50 for human ERG to IC50 for human ROMK

Row | SMILES | IC50 [1] [nM] | Papp [3] [×10⁻⁶ cm/s] | Ratio [4] | IC50 [2] [nM]
1 | CC1=C(N2C(=O)C3(CCN(C[C@H](O)c4ccc5c(c4C)COC5=O)CC3)CC2C)COC1=O (some centres not stated) | 18 | 18 |  | 18000
2 | Cc1c([C@@H](O)CN2CCC3(CC2)CCN(C2=CC(=O)OC2C)C3=O)ccc2c1COC2=O (some centres not stated) | 24 | 19 |  | 19000
3 | Cc1c([C@@H](O)CN2CCC3(CC2)CC(=O)N(C2=CC(=O)OC2)C3)ccc2c1COC2=O | 45 | 7.9 | 2000 | 90000
4 | CC1=C(N2CCC3(CCN(C[C@H](O)c4ccc5c(c4C)COC5=O)CC3)C2=O)CCC1=O | 15 | 22 |  | 
5 | Cc1c([C@@H](O)CN2CCC3(CC2)CCN(C2=C(Cl)C(=O)OC2)C3=O)ccc2c1COC2=O | 6 | 33 |  | 
6 | Cc1c([C@@H](O)CN2CCN(C[C@H](O)c3ccc4c(c3C)COC4=O)CC2)ccc2c1COC2=O [MK-7145] |  | 20 |  | 22000
7 | CCC1=C(N2CCC3(CCN(C[C@H](O)c4ccc5c(c4C)COC5=O)CC3)C2=O)COC1=O | 18 | 23 |  | 
8 | Cc1c([C@@H](O)CN2CCC3(CC2)CCN(C2=CC(=O)OC2)C3=O)ccc2c1COC2=O |  | 11 |  | 

Now from value to compound, other results behind:

Row | IC50 [1] [nM] | Papp [3] [×10⁻⁶ cm/s] | Ratio [4] | SMILES | IC50 [2] [nM]
9 | 98 | 20 |  | CC1=C(N2CCC3(CCN(C[C@H](O)c4ccc5c(c4C)COC5=O)CC3)C2=O)C(C)OC1=O (some centres not stated) | 20000
10 | 26 | 27 | 3400 | Cc1c([C@@H](O)CN2CCC3(CC2)CCN(C2=CC(=O)OC2)C3)ccc2c1COC2=O | 90000
11 | 11 |  |  | Cc1c([C@@H](O)CN2CCC3(CC2)CCN(C2=CC(=O)CC2)C3=O)ccc2c1COC2=O | 
